We go through eleven molecules from PubChem BioAssay (NCI).

Test systems include NCI/ADR-RES ovarian; RXF 393 renal; SNB-75 CNS; COLO 205 colon; NCI-H522 lung; MDA-MB-231 breast; SW-620 colon; HCC-2998 colon; SK-MEL-5 melanoma; HCT-15 colon; BT-549 breast.
Common to all, as to test: growth of human tumour cells (NCI), 48 h

Molecules are shown by their SMILES. Several values for one entry are separate records, joined by “and”; a condition that tells them apart may be missing. Equal values may be shown once.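 Each compound was tested at five concentrations against cells in 96-well plates for 48 hours. GI50: concentration for 50% inhibition of growth. TGI marks complete inhibition of growth.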

Turning to `CC(C)[C@@H]1NC(=O)[C@@H]2N=C(O[C@H]2C)[C@H](C(C)C)NC(=O)C2N=C1O[C@H]2C`, the TGI with NCI/ADR-RES ovarian, in the experiment on RXF 393 renal, with SNB-75 CNS, with COLO 205 colon, with NCI-H522 lung and with MDA-MB-231 breast was over 100 µM in each case. Besides, the TGI in the experiment on SW-620 colon, in the experiment on HCC-2998 colon, with SK-MEL-5 melanoma and with HCT-15 colon was over 100 µM each time.
For the molecule `CN(/N=C\c1ccc2ccccc2c1)C1=NCCCN1`, the TGI in the experiment with NCI/ADR-RES ovarian turned out to be 74.4 µM; in the experiment with RXF 393 renal it was 35.4 µM; in the experiment on SNB-75 CNS, 91.2 µM; in the experiment on COLO 205 colon, 25.3 µM; with NCI-H522 lung, 30.3 µM; in the experiment on MDA-MB-231 breast it was 34.5 µM. Also, the TGI stood at 27.2 µM in the experiment with SW-620 colon, 27.2 µM in the experiment on HCC-2998 colon, 24.6 µM with SK-MEL-5 melanoma and 74.4 µM with HCT-15 colon.
For the molecule `CC(C)=CCCC1(C)C2COC(=O)C21` (stereo not drawn), the TGI with RXF 393 renal, in the experiment with COLO 205 colon, in the experiment with NCI-H522 lung, in the experiment with MDA-MB-231 breast, in the experiment on SW-620 colon and in the experiment on HCC-2998 colon was over 100 µM in each case. The TGI with SK-MEL-5 melanoma was > 100 µM and 34.6 µM; in the experiment with HCT-15 colon it was over 100 µM; with BT-549 breast, over 100 µM. The GI50 in the experiment with COLO 205 colon is > 100 µM and 34.2 µM; in the experiment with NCI-H522 lung, > 100 µM and 47.2 µM; with SK-MEL-5 melanoma, > 100 µM and 17.5 µM; in the experiment on HCT-15 colon it was > 100 µM and 37 µM.
As for `O=C(O)C1(C(O)c2ccccc2)SCCCS1` (stereo not drawn), the TGI in the experiment with RXF 393 renal, in the experiment on SNB-75 CNS, with MDA-MB-231 breast, in the experiment with SW-620 colon, in the experiment with SK-MEL-5 melanoma and in the experiment with HCT-15 colon was over 10 µM throughout. Also, the TGI with BT-549 breast was over 10 µM.
As for `CCOC(=O)C1C(c2ccc(OC)cc2)c2c([nH]n(-c3ccccc3)c2=O)CC1(C)O` (stereo not drawn), the TGI with NCI/ADR-RES ovarian is over 100 µM; in the experiment on SNB-75 CNS, over 100 µM; with COLO 205 colon, 50.4 µM; in the experiment with NCI-H522 lung, over 100 µM; in the experiment on MDA-MB-231 breast it was over 100 µM; in the experiment with SW-620 colon it was over 100 µM. Moreover, the TGI in the experiment with HCC-2998 colon, in the experiment with SK-MEL-5 melanoma and with HCT-15 colon was over 100 µM each time.
On to `CCc1cc2c(c3c1CCCC3=O)CC1(C2)Cc2cc(CC)c3c(c2C1)C(=O)CCC3`, for which the TGI in the experiment with NCI/ADR-RES ovarian, in the experiment with RXF 393 renal, with SNB-75 CNS, in the experiment with COLO 205 colon, in the experiment with NCI-H522 lung and in the experiment with MDA-MB-231 breast was over 100 µM throughout. Further, the TGI in the experiment with SW-620 colon, in the experiment on HCC-2998 colon, with SK-MEL-5 melanoma and with HCT-15 colon was over 100 µM throughout.
Turning to `C=CCOC(=O)N1c2ccc(O)cc2[C@@]23O[C@@]24[C@@H]1C#C/C=C\C#C[C@]3(O)C(=O)C[C@@H]4C`, the TGI in the experiment on NCI/ADR-RES ovarian, in the experiment on RXF 393 renal, in the experiment with SNB-75 CNS, in the experiment on COLO 205 colon, in the experiment on NCI-H522 lung and in the experiment on MDA-MB-231 breast was over 100 µM each time. The TGI with SW-620 colon, with HCC-2998 colon, in the experiment with SK-MEL-5 melanoma and in the experiment with HCT-15 colon was over 100 µM in each case.
Regarding `COc1ccc2c(c1)CC[C@@H]1C2CC[C@]2(C)C(=C=CP(=O)(O)O)CCC12` (stereo partly drawn), the TGI in the experiment on NCI/ADR-RES ovarian, in the experiment with RXF 393 renal, in the experiment with SNB-75 CNS, in the experiment with COLO 205 colon, in the experiment with NCI-H522 lung and in the experiment with SW-620 colon was over 100 µM each time. Besides, the TGI in the experiment with HCC-2998 colon, in the experiment with SK-MEL-5 melanoma and in the experiment on HCT-15 colon was over 100 µM each time.
For the molecule `Cc1ccccc1Nc1nc2ccccc2nc1NS(=O)(=O)c1ccccc1`, the TGI in the experiment with NCI/ADR-RES ovarian, in the experiment with RXF 393 renal, in the experiment with SNB-75 CNS, in the experiment with COLO 205 colon, in the experiment on NCI-H522 lung and with MDA-MB-231 breast was over 100 µM throughout. Moreover, the TGI in the experiment with SW-620 colon, in the experiment on HCC-2998 colon, with SK-MEL-5 melanoma and in the experiment with HCT-15 colon was over 100 µM each time.
`CSc1nc(C)c2c(n1)N(c1ccc(Cl)cc1)CC2`: the TGI was over 100 µM in the experiment with NCI/ADR-RES ovarian; over 100 µM in the experiment with RXF 393 renal; 38.8 µM with SNB-75 CNS; over 100 µM in the experiment on COLO 205 colon; over 100 µM in the experiment on NCI-H522 lung; over 100 µM in the experiment on MDA-MB-231 breast. In addition, the TGI in the experiment with SW-620 colon, with HCC-2998 colon, in the experiment on SK-MEL-5 melanoma and in the experiment with HCT-15 colon was over 100 µM each time.
Turning to `c1cc2c(cc1[C@@H]1OC[C@@H]3[C@H]1CO[C@H]3c1ccc3c(c1)OCO3)OCO2`, the TGI with NCI/ADR-RES ovarian was over 100 µM; in the experiment with RXF 393 renal it was 89.3 µM; in the experiment on SNB-75 CNS, over 100 µM; with COLO 205 colon, over 100 µM; in the experiment on NCI-H522 lung it was over 100 µM; in the experiment on MDA-MB-231 breast, over 100 µM. Further, the TGI with SW-620 colon is over 100 µM; in the experiment on HCC-2998 colon, over 100 µM; in the experiment on SK-MEL-5 melanoma it was 33.6 µM; in the experiment on HCT-15 colon, over 100 µM.
